Data published in patent publication US20060004088A1, “Furan derivatives for preventing and curing osteoporosis and pharmaceutical compositions containing the same” (OCT INC., priority 2002, published 2006).
Entries after “also recorded” stand apart in the source; their conditions may differ.

Experiments:
[1] = test system: alkaline phosphatase (ALP) in HOS cells; assay: Alkaline phosphatase (osteoblast marker enzyme) activity in HOS cells; assay type: cell-based, human; conditions: text summary, concentration not stated
Text: In the following tests, three kinds of cell lines were used. The human osteosarcoma cell lines, MG-63 (ATCC No. CRL-1427) and HOS (ATCC No. CRL-1543), and mouse muscle C2C12 muscle cells (ATCC No. CRL-1772) were purchased from ATCC (American Type Culture Collection, Rockville, USA), and cultured in Dulbecco's modified Eagle's medium (DMEM) supplemented with 10% fetal bovine serum (FBS).
To examine whether the Compound 1 affects positively or negatively osteoblast activity, alkaline phosphatase (ALP) activity was measured. HOS cells were aliquotted onto a 96-well microplate at a density of 5×10^3 cells per well, and cultured. When forming a monolayer, the cells were treated with the naturally extracted compound (Compound 1) at prescribed concentrations. After incubation in 10% FBS-containing DMEM for 48 hrs, the cells were treated with 0.1% Triton X-100/saline for 30 min at 37° C. A portion of each cell lysate was reacted with 0.1 N glycine-NaOh buffer (pH 10.4) for 30 min at 37° C. in the presence of 100 mM nitrophenyl phosphate (PNPP) as a substrate of alkaline phosphate. The amount of PNP (ρ-nitrophenol) released from the substrate PNPP was determined by measuring absorbance at 405 nm. Protein amount was determined by a modified Lowry method, and enzyme activity was designated as nmol substrate cleaved/h/mg protein.

[2] = test system: female white mice with osteoporosis induced by ovariectomy; assay: Preventive effect 1 on osteoporosis, tibia histology, oral administration; assay type: in vivo; conditions: oral for four weeks immediately after ovariectomy
Experimental: In order to evaluate effects of the compound of the present invention on treatment and prevention of osteoporosis, female white mice with osteoporosis induced by ovariectomy were used as a disease model. After ovariectomy, mice were administered with the compound of the present invention. Tibias were dissected from the mice, and observed histologically.
After anesthetizing female white mice with 100 mg/kg of Ketamine (Ketara) and 0.15 ml/kg of 2% Xylazine (Rompun), the lumbar dorsum is shaved bilaterally and the exposed skin was prepared for aseptic surgery by a 10% povidone-iodine scrub followed by a 70% alcohol wipe.
A 1-cm incision was made in the central region of the abdomen, and the ovary was identified along with the uterus with caution not to damage the main organs such as the liver and diaphragm. After ligating the uterus with a thread for suturing, the exposed ovary was severed toward both sides and removed. Thereafter, each organ was relocated to its original position, and the incision was closed with a thread for suturing in an interrupted pattern. […]
The daily dosage of the Compound 1 per female white mouse was determined based on 250 g body weight. […] With caution not to exchange the water bottles between the groups, everyday, the number of mice was recorded, and the mixture was prepared based on the number of mice. […]

osteoclasts = assay: Resorption activity of osteoclasts on calcium phosphate-coated plates (resorption pit area); assay type: cell-based, mice; conditions: for Resorption activity of osteoclasts, %: control = 100; for area of resorption pits compared to the control: text summary, concentration not stated
Experimental: First, bone marrow cells were isolated, as follow. After sacrificing 7-9 week female mice by cervical dislocation, femur and tibia were excised aseptically while removing attached soft tissues. After cutting both ends of long bones, 1 ml of an enzyme solution, containing 0.1% collagenase (Gibco), 0.05% trypsin and 0.5 mM EDTA (Gibco), was injected to the bone marrow cavity at one end using a syringe with a 26-guage needle, and bone marrow was then collected. After shaking the recovered bone marrow for 30 min, bone marrow cells were collected, and cultured in α-minimum essential medium (α-MEM) supplemented with 10% FBS for 24 hrs. Then, non-adherent cells were collected, which are osteoclast pregenitors, aliquotted onto culture plates at a density of 2×10^5 cells per well, and cultured for 8 days in α-MEM supplemented with 20 ng/ml of macrophage-colony stimulating factor (M-CSF, Peprotech, USA) and 30 ng/ml RANKL (Peprotech, USA). During the 8 days of culturing, the cells were treated with the Compound 1. Thereafter, osteoclast formation was investigated by fixing the cultured cells and then carrying out TRAP staining, as described in the following Experimental Example 2.2. In addition, resorption activity of osteoclasts was investigated by measuring the absorption area after removing osteoclasts in cultures in calcium phosphate-coated plates, as described in Experimental Example 2.3, below.
The differentiated osteoclasts were cultured on calcium phosphate-coated plates (OAASTM, OCT, Korea) in order to evaluate resorption activity of the cells. After removing culture medium, to remove the adherent cells, the plates were washed with distilled water three times, and incubated in 5% sodium hypochlorite for 5 min. After washing again with distilled water and drying the plates, the area of formed resorption pits was calculated by means of an Image Pro Plus software.

Q: `O=Cc1ccc(CO)o1` [Compound 1, 5-hydroxymethylfuran-2-carboxyaldehyde] was tested. Which “alkaline phosphatase activity compared to a control not treated” value [1] did it give?
A: about 121%

Q: What about the “alkaline phosphatase activity compared to a control not treated” value ([1]; listed as Example 1) of the same molecule?
A: 120%

Q: And the “cortical and trabecular bone compared to the control group, 40× magnification” value [2]?
A: marked increase in the cortical and trabecualr bone

Q: And the “trabecular bone loss in tibia, light microscopy” value ([2]; 10 mg/day, 12.5× and 40× magnification)?
A: such trabecular bone loss was not observed; also recorded: no trabecular bone loss

Q: And the “Resorption activity of osteoclasts, %” value (osteoclasts; 10^−4 M Compound 1, area of resorption pits)?
A: 52.34 ± 8.28%

Q: And the “Resorption activity of osteoclasts, %” value (osteoclasts; 10^−5 M Compound 1, area of resorption pits)?
A: 46.92 ± 3.60%

Q: And the “Resorption activity of osteoclasts, %” value (osteoclasts; 10^−6 M Compound 1, area of resorption pits)?
A: 41.75 ± 14.07%

Q: And the “Resorption activity of osteoclasts, %” value (osteoclasts; 10^−7 M Compound 1, area of resorption pits)?
A: 61.46 ± 10.35%

Q: What about the “Resorption activity of osteoclasts, %” value (osteoclasts; 10^−8 M Compound 1, area of resorption pits) of the same molecule?
A: 66.03 ± 7.49%

Q: What about the “area of resorption pits compared to the control” value (osteoclasts) of the same molecule?
A: about 50%

Q: What about the “area of resorption pits compared to the control” value (osteoclasts; listed as Example 1) of the same molecule?
A: inhibit bone resorption activity of osteoclasts
